The term IC50 denotes the concentration needed to halve the response being measured. The inhibition is the percentage by which the read-out fell short of the control.

The test system of series [1] is RAW264.7. Put plainly: Antiinflammatory activity in mouse RAW264.7 cells assessed as inhibition of LPS-induced NO production after 18 hrs by Griess assay. The format is functional, cell-based. Conditions: RAW264.7, 18 h. For orientation: The Griess reaction detects nitrite, a stable product of nitric oxide.
Series [2] can be described thus: Cytotoxicity against mouse RAW264.7 cells assessed as cell viability at 1 uM after 24 hrs by MTS assay relative to control. The class given is cell-based. The conditions noted are these: read-out: Activity.
Series [3] concerns RAW264.7. Put plainly: Inhibition of LPS-induced iNOS expression in mouse RAW264.7 cells at 10 uM after 18 hrs by Western blot method relative to LPS. The format is functional. For orientation: In western blotting, separated proteins are transferred to a membrane and probed.
A short description of series [4]: Cytotoxicity against mouse RAW264.7 cells assessed as cell viability at 10 uM after 24 hrs by MTS assay relative to control. Conditions: read-out: Activity. The format is cell-based. In general terms: Tetrazolium dyes change colour on reduction, which living cells bring about.
In series [5] the test system is RAW264.7. Nature of the series: Antiinflammatory activity in mouse RAW264.7 cells assessed as inhibition of LPS-induced NO production at 10 uM after 18 hrs by Griess assay relative to control. Conditions: RAW264.7, 18 h. The class given is functional.
Series [6] has as its system RAW264.7. Put plainly: Antiinflammatory activity in mouse RAW264.7 cells assessed as inhibition of LPS-induced NO production at 1 uM after 18 hrs by Griess assay relative to control. The format is functional. The conditions noted are these: RAW264.7, 18 h.

With `COc1cc2oc(C(=O)c3ccc(O)cc3)cc2cc1O`, in the series with RAW264.7 [1], the IC50 is 4.13 µM. For the same compound, the viability at 24 h, 1 µM in series [2] amounted to 97.9%. The “fold change (FC)” value in the series on RAW264.7 [3] was 0.26. The viability at 24 h, 10 µM in series [4] worked out at 93.1%. In the series with RAW264.7 [5], the inhibition at 10 µM was 99.3%. Further, in the series with RAW264.7 [6], the inhibition at 1 µM was 0%.
With `COc1ccc(C(=O)c2cc3cc(O)c(OC)cc3o2)cc1`, the IC50 in the series on RAW264.7 [1] was determined as 10.8 µM. In addition, the viability at 24 h, 1 µM in series [2] amounted to 98.1%. Besides, the “fold change (FC)” value in the series with RAW264.7 [3] stood at 0.52. In series [4], the viability at 24 h, 10 µM is 100%. Moreover, in the series with RAW264.7 [5], the inhibition at 10 µM was 43%. In the series with RAW264.7 [6], the inhibition at 1 µM is 16.2%.
On to `COc1cc2cc(C(=O)c3ccc(O)cc3)oc2cc1OC`, for which, in the series on RAW264.7 [1], the IC50 was found to be 10.4 µM. For the same compound, the viability at 24 h, 1 µM in series [2] stood at 106%. In addition, the “fold change (FC)” value in the series with RAW264.7 [3] was found to be 0.46. The viability at 24 h, 10 µM in series [4] was determined as 102%. In addition, the inhibition at 10 µM in the series on RAW264.7 [5] is 25.8%. Also, the inhibition at 1 µM in the series with RAW264.7 [6] was 8.6%.
As for `COc1cc2cc(C(=O)c3ccc(O)cc3)oc2cc1O`, the half-maximal inhibitory concentration (IC50) in the series on RAW264.7 [1] turned out to be 0.57 µM. Moreover, in series [2], the viability at 24 h, 1 µM is 98.1%. In the series with RAW264.7 [3], the “fold change (FC)” value is 0.18. Besides, the viability at 24 h, 10 µM in series [4] came out at 95.9%. Besides, the inhibition at 10 µM in the series on RAW264.7 [5] is 99.6%. In addition, the inhibition at 1 µM with RAW264.7 [6] is 54.2%.
For the compound `COc1ccc(C(=O)c2cc3cc(OC)c(OC)cc3o2)cc1`, the IC50 in the series with RAW264.7 [1] was 11.8 µM. For the same compound, the viability at 24 h, 1 µM in series [2] worked out at 105%. Besides, in the series on RAW264.7 [3], the “fold change (FC)” value is given as 0.65. For the same compound, the viability at 24 h, 10 µM in series [4] was 98.6%. Besides, the inhibition at 10 µM in the series on RAW264.7 [5] is 29.8%. The inhibition at 1 µM in the series on RAW264.7 [6] amounted to 9.5%.
As to `COc1ccc(C(=O)c2cc3cc(OC)c(O)cc3o2)cc1`, in the series with RAW264.7 [1], the concentration for half-maximal inhibition (IC50) amounted to 13.3 µM. In addition, the viability at 24 h, 1 µM in series [2] came to 93.2%. Moreover, the “fold change (FC)” value in the series on RAW264.7 [3] amounted to 0.77. Also, in series [4], the viability at 24 h, 10 µM worked out at 91.8%. The inhibition at 10 µM in the series with RAW264.7 [5] is 29.7%. Also, the inhibition at 1 µM in the series on RAW264.7 [6] is 7.8%.
Take `COc1ccc(C(=O)c2cc3cc(O)c(O)cc3o2)cc1`: in the series with RAW264.7 [1], the IC50 came out at 1.9 µM. The viability at 24 h, 1 µM in series [2] is 95.1%. In the series on RAW264.7 [3], the “fold change (FC)” value is recorded as 0.19. For the same compound, the viability at 24 h, 10 µM in series [4] is 101%. Further, the inhibition at 10 µM in the series on RAW264.7 [5] is 96.8%. Moreover, in the series with RAW264.7 [6], the inhibition at 1 µM was found to be 19.7%.
With `O=C(c1ccc(O)cc1)c1cc2cc(O)c(O)cc2o1`, the half-inhibitory concentration (IC50) with RAW264.7 [1] was found to be 0.99 µM. The viability at 24 h, 1 µM in series [2] worked out at 106%. Besides, in the series on RAW264.7 [3], the “fold change (FC)” value is recorded as 0.36. The viability at 24 h, 10 µM in series [4] came out at 100%. The inhibition at 10 µM with RAW264.7 [5] turned out to be 74.3%. Moreover, the inhibition at 1 µM in the series with RAW264.7 [6] was determined as 42.9%.
As for `CNC(=N)NCCC[C@H](N)C(=O)O` [TILARGININE], in the series on RAW264.7 [1], the half-maximal inhibitory concentration (IC50) came to 2.69 µM. In addition, the viability at 24 h, 1 µM in series [2] was determined as 98.6%. Also, the viability at 24 h, 10 µM in series [4] was 97.6%. Further, in the series on RAW264.7 [5], the inhibition at 10 µM was found to be 92.4%. The inhibition at 1 µM with RAW264.7 [6] was 20.9%.

The record behind these values is ChEMBL document CHEMBL3779776, “Synthesis and biological evaluation of 2-aroylbenzofurans, rugchalcones A, B and their derivatives as potent anti-inflammatory agents” (Bioorg Med Chem Lett, 2016).
